# Assay results taken from ChEMBL document CHEMBL4321837, “Discovery of Potent and Orally Effective Dual Janus Kinase 2/FLT3 Inhibitors for the Treatment of Acute Myelogenous Leukemia and Myeloproliferative Neoplasms” (J Med Chem, 2019).
# Legend:
# [1] = Anti-myelofibrosis activity against mouse BAF3(transformed) cells harboring with JAK2 V617F mutant allografted in NOD/SCID mouse assessed as reduction in liver weight at 60 mg/kg, po qd for 20 days measured on day 25 relative to control; type: functional
# [2] = Anti-myelofibrosis activity against mouse BAF3(transformed) cells harboring with JAK2 V617F mutant allografted in NOD/SCID mouse assessed as reduction in spleen weight at 60 mg/kg, po qd for 20 days measured on day 25 relative to control; type: functional
# MV4-11 = experiment: Antiproliferative activity against FLT3-ITD-positive human MV4-11 cells assessed as reduction in cell growth after 72 hrs by MTT assay; type: functional, cell-based; conditions: MV4-11, 72 h
# MOLM-13 = experiment: Antiproliferative activity against FLT3-ITD-positive human MOLM13 cells assessed as reduction in cell growth after 72 hrs by MTT assay; type: functional, cell-based; conditions: MOLM-13, 72 h
# [3] = target: T1, Tyrosine-protein kinase JAK1 (Homo sapiens, UniProt P23458); experiment: Inhibition of human JAK1 (866 to end residues) assessed as residual activity at 100 nM using GEEPLYWSFPAKK as substrate after 40 mins in presence of [gamma33P]-ATP by scintillation counting based radiometric assay relative to control
# T1 sequence (P23458 whole entry): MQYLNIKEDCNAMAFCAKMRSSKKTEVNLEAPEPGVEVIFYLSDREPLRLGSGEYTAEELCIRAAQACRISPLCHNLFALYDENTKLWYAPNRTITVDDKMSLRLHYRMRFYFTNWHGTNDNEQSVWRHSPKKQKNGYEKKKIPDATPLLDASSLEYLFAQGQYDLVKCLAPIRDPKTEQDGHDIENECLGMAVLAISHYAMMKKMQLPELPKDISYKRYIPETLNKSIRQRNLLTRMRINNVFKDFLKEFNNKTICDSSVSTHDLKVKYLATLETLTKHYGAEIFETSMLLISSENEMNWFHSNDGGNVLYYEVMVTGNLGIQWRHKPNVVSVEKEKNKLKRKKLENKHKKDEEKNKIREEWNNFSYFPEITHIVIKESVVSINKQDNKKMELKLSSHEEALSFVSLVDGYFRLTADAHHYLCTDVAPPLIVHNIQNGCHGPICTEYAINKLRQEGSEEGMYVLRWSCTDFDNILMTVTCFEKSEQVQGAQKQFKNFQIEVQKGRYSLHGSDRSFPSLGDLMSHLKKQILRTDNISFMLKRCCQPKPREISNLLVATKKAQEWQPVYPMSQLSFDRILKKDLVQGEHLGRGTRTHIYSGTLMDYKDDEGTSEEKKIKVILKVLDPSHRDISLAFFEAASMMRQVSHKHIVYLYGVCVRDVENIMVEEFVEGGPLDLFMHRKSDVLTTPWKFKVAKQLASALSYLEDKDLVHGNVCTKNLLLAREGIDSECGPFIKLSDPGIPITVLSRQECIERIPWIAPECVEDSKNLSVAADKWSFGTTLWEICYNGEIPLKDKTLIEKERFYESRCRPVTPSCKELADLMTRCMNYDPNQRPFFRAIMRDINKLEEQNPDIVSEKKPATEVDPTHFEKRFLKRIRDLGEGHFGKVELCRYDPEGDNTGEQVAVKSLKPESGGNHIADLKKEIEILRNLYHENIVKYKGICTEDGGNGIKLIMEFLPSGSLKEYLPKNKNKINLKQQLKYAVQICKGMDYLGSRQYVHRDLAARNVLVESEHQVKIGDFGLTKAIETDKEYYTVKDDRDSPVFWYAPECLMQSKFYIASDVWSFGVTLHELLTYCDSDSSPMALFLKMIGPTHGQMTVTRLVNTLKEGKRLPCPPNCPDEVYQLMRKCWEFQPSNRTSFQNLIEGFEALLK
# [4] = target: T2, Tyrosine-protein kinase JAK2 (Homo sapiens, UniProt O60674); experiment: Inhibition of human JAK2 (808 to end residues) assessed as residual activity at 100 nM using KTFCGTPEYLAP as substrate after 40 mins in presence of [gamma33P]-ATP by scintillation counting based radiometric assay relative to control
# T2 sequence (O60674 whole entry): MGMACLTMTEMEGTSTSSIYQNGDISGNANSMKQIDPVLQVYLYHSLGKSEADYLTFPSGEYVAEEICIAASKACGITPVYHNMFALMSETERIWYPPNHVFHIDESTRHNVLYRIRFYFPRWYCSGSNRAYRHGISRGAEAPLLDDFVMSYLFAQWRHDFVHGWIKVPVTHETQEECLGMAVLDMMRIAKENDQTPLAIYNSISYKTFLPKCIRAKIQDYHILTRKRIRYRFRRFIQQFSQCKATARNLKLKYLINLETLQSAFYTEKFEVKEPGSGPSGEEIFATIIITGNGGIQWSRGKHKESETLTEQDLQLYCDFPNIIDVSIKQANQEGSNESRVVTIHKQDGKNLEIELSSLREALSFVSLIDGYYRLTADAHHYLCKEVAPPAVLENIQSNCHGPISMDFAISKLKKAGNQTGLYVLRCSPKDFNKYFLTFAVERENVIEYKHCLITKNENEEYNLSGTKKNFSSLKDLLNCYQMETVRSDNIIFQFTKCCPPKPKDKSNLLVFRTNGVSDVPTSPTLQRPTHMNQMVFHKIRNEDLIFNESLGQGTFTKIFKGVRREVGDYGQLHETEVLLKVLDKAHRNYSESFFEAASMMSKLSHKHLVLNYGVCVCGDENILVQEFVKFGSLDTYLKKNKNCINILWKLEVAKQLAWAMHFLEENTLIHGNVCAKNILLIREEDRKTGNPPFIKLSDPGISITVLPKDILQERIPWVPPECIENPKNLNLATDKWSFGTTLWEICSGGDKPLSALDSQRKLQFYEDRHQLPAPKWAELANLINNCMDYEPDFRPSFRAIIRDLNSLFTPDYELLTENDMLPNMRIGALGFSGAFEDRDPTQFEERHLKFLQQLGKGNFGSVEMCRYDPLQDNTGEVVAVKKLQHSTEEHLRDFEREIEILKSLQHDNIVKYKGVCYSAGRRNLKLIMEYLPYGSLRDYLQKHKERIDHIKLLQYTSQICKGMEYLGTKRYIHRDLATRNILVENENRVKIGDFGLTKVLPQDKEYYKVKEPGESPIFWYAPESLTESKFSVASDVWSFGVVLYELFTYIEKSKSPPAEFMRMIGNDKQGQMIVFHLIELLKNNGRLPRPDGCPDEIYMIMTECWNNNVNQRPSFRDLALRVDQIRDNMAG
# [5] = target: T3, Tyrosine-protein kinase JAK3 (Homo sapiens) (UniProt P52333); experiment: Inhibition of human JAK3 (781 to end residues) assessed as residual activity at 100 nM using GGEEEEYFELVKK as substrate after 40 mins in presence of [gamma33P]-ATP by scintillation counting based radiometric assay relative to control
# T3 sequence (whole entry): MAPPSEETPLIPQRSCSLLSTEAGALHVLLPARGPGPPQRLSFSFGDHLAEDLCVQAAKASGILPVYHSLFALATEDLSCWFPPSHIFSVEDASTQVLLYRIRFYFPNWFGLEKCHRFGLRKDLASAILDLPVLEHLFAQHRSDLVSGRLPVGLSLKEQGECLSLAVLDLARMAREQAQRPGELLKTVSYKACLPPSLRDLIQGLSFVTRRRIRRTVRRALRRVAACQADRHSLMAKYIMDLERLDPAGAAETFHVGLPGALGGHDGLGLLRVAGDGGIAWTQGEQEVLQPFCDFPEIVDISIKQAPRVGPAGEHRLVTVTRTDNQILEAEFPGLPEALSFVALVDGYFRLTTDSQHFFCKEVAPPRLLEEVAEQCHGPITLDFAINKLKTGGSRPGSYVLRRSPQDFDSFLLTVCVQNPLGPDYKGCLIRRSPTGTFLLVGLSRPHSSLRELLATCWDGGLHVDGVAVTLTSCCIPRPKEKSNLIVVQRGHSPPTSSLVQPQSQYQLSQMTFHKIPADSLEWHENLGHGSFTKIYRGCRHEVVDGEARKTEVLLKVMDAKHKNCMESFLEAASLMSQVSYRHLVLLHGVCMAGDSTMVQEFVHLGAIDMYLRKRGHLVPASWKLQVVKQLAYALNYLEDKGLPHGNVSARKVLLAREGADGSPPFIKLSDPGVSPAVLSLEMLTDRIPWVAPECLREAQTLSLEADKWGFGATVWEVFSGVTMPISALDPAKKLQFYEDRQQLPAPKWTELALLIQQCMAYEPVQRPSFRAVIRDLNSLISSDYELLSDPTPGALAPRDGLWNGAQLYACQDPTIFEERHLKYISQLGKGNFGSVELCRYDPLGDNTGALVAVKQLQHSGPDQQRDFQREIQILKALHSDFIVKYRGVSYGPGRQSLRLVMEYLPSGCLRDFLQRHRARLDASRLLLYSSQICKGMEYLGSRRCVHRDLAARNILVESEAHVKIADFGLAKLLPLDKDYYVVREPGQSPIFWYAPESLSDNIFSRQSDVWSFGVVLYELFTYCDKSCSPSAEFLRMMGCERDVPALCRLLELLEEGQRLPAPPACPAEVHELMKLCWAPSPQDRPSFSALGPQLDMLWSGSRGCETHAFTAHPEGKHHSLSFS
# [6] = target: Receptor-type tyrosine-protein kinase FLT3 (Homo sapiens) (UniProt P36888); experiment: Inhibition of human FLT3 (564 to end residues) assessed as residual activity at 100 nM using EAIYAAPFAKKK as substrate after 40 mins in presence of [gamma33P]-ATP by scintillation counting based radiometric assay relative to control
# [7] = target: T1, Tyrosine-protein kinase JAK1; experiment: Inhibition of human JAK1 (866 to end residues) GEEPLYWSFPAKK as substrate after 40 mins in presence of [gamma33P]-ATP by scintillation counting based radiometric assay
# [8] = target: T2, Tyrosine-protein kinase JAK2; experiment: Inhibition of human JAK2 (808 to end residues) using KTFCGTPEYLAP as substrate after 40 mins in presence of [gamma33P]-ATP by scintillation counting based radiometric assay
# [9] = target: T4, Tyrosine-protein kinase JAK3 (Homo sapiens, UniProt P52333); experiment: Inhibition of human JAK3 (781 to end residues) using GGEEEEYFELVKK as substrate after 40 mins in presence of [gamma33P]-ATP by scintillation counting based radiometric assay
# T4 sequence (P52333 whole entry): T3 sequence (whole entry)
# [10] = target: T5, Receptor-type tyrosine-protein kinase FLT3 (Homo sapiens, UniProt P36888); experiment: Inhibition of human FLT3 (564 to end residues) using EAIYAAPFAKKK as substrate after 40 mins in presence of [gamma33P]-ATP by scintillation counting based radiometric assay
# T5 sequence (P36888 whole entry): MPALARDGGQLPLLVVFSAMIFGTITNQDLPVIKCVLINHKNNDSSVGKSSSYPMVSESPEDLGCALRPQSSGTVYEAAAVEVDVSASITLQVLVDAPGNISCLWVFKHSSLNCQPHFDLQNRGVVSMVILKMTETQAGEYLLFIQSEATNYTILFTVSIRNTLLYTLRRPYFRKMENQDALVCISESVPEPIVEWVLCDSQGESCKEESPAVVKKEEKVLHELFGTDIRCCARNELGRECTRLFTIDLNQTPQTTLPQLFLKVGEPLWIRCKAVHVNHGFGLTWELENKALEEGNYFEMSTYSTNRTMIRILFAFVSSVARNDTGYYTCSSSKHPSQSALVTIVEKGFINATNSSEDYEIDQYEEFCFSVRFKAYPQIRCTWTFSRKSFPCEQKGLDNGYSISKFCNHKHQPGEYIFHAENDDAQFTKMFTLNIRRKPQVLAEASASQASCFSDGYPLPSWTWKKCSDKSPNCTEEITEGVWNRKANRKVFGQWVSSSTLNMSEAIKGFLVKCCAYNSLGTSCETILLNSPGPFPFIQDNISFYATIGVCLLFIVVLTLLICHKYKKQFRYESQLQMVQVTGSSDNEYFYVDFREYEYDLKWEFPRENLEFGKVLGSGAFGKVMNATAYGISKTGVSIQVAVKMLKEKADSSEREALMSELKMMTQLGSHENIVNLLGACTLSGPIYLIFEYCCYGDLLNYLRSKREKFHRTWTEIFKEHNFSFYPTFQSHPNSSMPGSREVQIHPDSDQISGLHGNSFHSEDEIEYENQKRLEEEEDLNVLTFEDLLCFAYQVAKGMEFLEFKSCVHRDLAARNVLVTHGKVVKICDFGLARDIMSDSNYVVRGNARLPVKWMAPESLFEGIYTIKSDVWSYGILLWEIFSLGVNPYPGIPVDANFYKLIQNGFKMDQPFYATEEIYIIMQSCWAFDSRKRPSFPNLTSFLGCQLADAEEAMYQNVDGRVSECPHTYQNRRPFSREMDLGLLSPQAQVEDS
# Homo sapiens [11] = species: Homo sapiens; experiment: Selectivity ratio of IC50 for inhibition of human JAK1 (866 to end residues) to inhibition of human JAK2 (808 to end residues)
# Homo sapiens [12] = species: Homo sapiens; experiment: Selectivity ratio of IC50 for inhibition of human JAK3 (781 to end residues) to inhibition of human JAK2 (808 to end residues)
# [13] = Cmax in Sprague-Dawley rat at 5 mg/kg, po measured up to 24 hrs by LC/MS/MS analysis; type: ADME, organism-based; parameters: dose 5 mg/kg, route oral; conditions: in vivo
# [14] = Tmax in Sprague-Dawley rat at 5 mg/kg, po measured up to 24 hrs by LC/MS/MS analysis; type: ADME, organism-based; conditions: in vivo
# [15] = Terminal elimination half life in Sprague-Dawley rat at 5 mg/kg, po measured up to 24 hrs by LC/MS/MS analysis; type: ADME, organism-based; conditions: in vivo; for half-life: Sprague-Dawley, read-out: beta t1/2 (converted)
# [16] = AUC (0 to t) in Sprague-Dawley rat at 5 mg/kg, po measured up to 24 hrs by LC/MS/MS analysis; type: ADME, organism-based; parameters: dose 5 mg/kg, time < 24 hr, route oral; conditions: in vivo; for AUC(0-t) at 24 h: Sprague-Dawley
# [17] = Oral bioavailability in Sprague-Dawley rat at 5 mg/kg measured up to 24 hrs by LC/MS/MS analysis; type: ADME, organism-based; conditions: in vivo
# Cytochrome P450 3A4 = Cytochrome P450 3A4 (Homo sapiens, UniProt P08684); experiment: Inhibition of CYP3A4 (unknown origin); type: ADME
# Chain of Cytochrome P450 3A4 (P08684 whole entry): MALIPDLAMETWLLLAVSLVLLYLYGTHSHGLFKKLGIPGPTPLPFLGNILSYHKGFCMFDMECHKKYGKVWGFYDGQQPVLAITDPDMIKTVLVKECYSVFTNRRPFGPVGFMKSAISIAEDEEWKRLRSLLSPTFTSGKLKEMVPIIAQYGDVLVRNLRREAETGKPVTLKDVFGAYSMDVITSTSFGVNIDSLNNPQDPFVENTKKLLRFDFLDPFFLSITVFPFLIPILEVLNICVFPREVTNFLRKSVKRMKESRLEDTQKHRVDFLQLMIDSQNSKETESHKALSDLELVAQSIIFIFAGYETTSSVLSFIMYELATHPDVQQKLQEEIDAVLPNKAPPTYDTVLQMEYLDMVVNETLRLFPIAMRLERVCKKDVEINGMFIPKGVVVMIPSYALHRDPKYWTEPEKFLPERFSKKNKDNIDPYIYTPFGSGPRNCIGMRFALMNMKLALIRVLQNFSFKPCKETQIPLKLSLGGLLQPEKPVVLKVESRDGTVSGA
# SET-2 = experiment: Antiproliferative activity against human SET2 cells overexpressing JAK2 […] mutant assessed as reduction in cell growth after 72 hrs by MTT assay; type: functional, cell-based; conditions: SET-2, 72 h
Compound,IC50 (MV4-11),IC50 (MOLM-13),Activity [3],Activity [4],Activity [5],Activity [6],IC50 [7],IC50 [8],IC50 [9],IC50 [10],Ratio IC50 (Homo sapiens [11]),Ratio IC50 (Homo sapiens [12]),bioavailability [17],IC50 (Cytochrome P450 3A4),"Cmax ([13]; Sprague-Dawley, read-out: Cmax)","Tmax ([14]; Sprague-Dawley, read-out: Tmax)",half-life [15],AUC(0-t) at 24 h [16],further results
Cc1cnc(Nc2ccc(OCCN3CCCC3)cc2)nc1Nc1cccc(S(=O)(=O)NC(C)(C)C)c1 [FEDRATINIB],–,–,–,–,–,–,–,–,–,–,–,–,–,–,–,–,–,–,inhibition in vivo at 60 mg/kg [1]: 69.8%; inhibition in vivo at 60 mg/kg [2]: 24.7%
Cc1cnc(Nc2ccc(N3CCC(N(C)CCCO)CC3)c(F)c2)nc1-c1cnn(C(C)C)c1,8.3 nM,82 nM,22%,5%,31%,7%,47 nM,1 nM,23 nM,9 nM,47,23,43%,> 100000 nM,88.9 ng/mL,4.1 h,7.8 h,1510 ng·h/mL,–
C1=N/C2=N/c3ccc(OCCN4CCCC4)c(c3)COC/C=C/COCc3cccc(c3)C(=C1)N2 [PACRITINIB],–,–,–,–,–,–,–,–,–,–,–,–,–,–,–,–,–,–,IC50 (SET-2): 916 nM

# Further lines, with some results ahead:
IC50 (MV4-11),IC50 (MOLM-13),Activity [3],Activity [4],Activity [5],Activity [6],IC50 [7],IC50 [8],IC50 [9],IC50 [10],Ratio IC50 (Homo sapiens [11]),Ratio IC50 (Homo sapiens [12]),bioavailability [17],IC50 (Cytochrome P450 3A4),"Cmax ([13]; Sprague-Dawley, read-out: Cmax)","Tmax ([14]; Sprague-Dawley, read-out: Tmax)",half-life [15],AUC(0-t) at 24 h [16],Compound,further results
4.3 nM,50 nM,24%,5%,44%,5%,121 nM,3 nM,103 nM,11 nM,40,34,45%,> 100000 nM,–,–,–,–,Cc1cnc(Nc2ccc(N3CCC(N(C)CCN4CCN(C)CC4)CC3)c(F)c2)nc1-c1cnn(C(C)C)c1,Cmax ([13]; 24 h): 2.3 ng/mL; Tmax ([14]; 24 h): 2.1 h; beta t1/2 ([15]; 24 h): 16 h; AUCt ([16]; 24 h): 2265 ng·h/mL
6.4 nM,24 nM,27%,4%,33%,7%,76 nM,2 nM,39 nM,15 nM,38,19,31%,> 100000 nM,56.5 ng/mL,2.3 h,5.9 h,305 ng·h/mL,CCCCN(C)C1CCN(c2ccc(Nc3ncc(C)c(-c4cnn(C(C)C)c4)n3)cc2F)CC1,–
